# Data: article PMC7972453, “The allosteric modulation of complement C5 by knob domain peptides” (eLife, 2021)
# “Also recorded” adds a separate entry of the source. Bridges are numbered along the chain shown (N, C = ends). Where no end group is shown, it is not given here.
# Assays:
# [1] = test system: classical pathway C5b deposition (complement C5); assay: Classical pathway C5b deposition ELISA; type: biochemical, human; settings: n=3 (K8: n=6), ND* = Not detected
# Text: (§1) Figure 1. Functional modulation of C5 via knob domain peptides. […] Following activation of C1q via antibody Fc, C4 and C2 are cleaved and form C4bC2a (the CP C3 convertase) which cleaves C3 into C3a (not shown) and C3b. At high C3b concentrations, C4bC2aC3b (the CP […]) forms and cleaves C5 into C5a and C5b. C5b associates with C6 and forms the membrane attack complex (MAC) with C7, C8, and multiple copies of C9. […] In the presence of factor B and factor D, C3bBb (the AP C3 convertase) generates additional C3b, prompting formation of C3bBbC3b (the AP C5 convertase), which cleaves C5 into C5a and C5b, driving MAC formation. CP-driven ELISAs (C) and AP-driven ELISAs (D) are shown. For both pathways, the inhibition of C3d (the surface-associated domain of C3b, which is upstream of C5 inhibition), C5a release, and C5b neo-epitope formation and C9 deposition were tracked within the MAC. […] For the AP assays, 5% serum (v/v) gives a putative C5 concentration of 20 nM. For the CP assays, 1% serum (v/v) gives a putative C5 concentration of 4 nM, based on a reported C5 serum concentration of 397 nM/75 µg/mL ([Sjöholm, 1975]).
# (§2) For the C5b ELISA, assays were run using the CP and AP Complement functional ELISA kits (Svar Life Science, Malmö, Sweden). For sample preparation, serum was diluted as per the respective protocol for the CP and AP assays. […]
# [2] = test system: alternative pathway C5b deposition (complement C5); assay: Alternative pathway C5b deposition ELISA; type: biochemical, human; settings: n=3 (K8: n=5; K92: n=4), ND* = Not detected
# Text: as §1, §2
# [3] = test system: alternative pathway mediated C5a release (complement C5); assay: Inhibition of alternative pathway mediated C5a release (ELISA); type: biochemical, human; settings: AP C5a release; n=3 (K8: n=4); ND* = Not detected
# Protocol: For the C5b ELISA, assays were run using the CP and AP Complement functional ELISA kits (Svar Life Science, Malmö, Sweden). For sample preparation, serum was diluted as per the respective protocol for the CP and AP assays. Serial dilutions of peptides were prepared and allowed to incubate with serum for 15 min at room temperature prior to plating.
# For the C5a ELISA, assays were run using the Complement C5a Human ELISA Kit (Invitrogen, Renfrew, UK). For sample preparation, at the end of the 37°C incubation of the serum/peptide samples on the C5b ELISA plate, 50 µL of the diluted, activated serum was transferred to a C5a ELISA plate containing 50 µL/well of assay buffer. All subsequent experimental steps were performed as described in the protocol.
# Table 1.4. Inhibition of alternative pathway mediated C5a release.
# Data from n=3, unless otherwise stated
# [4] = test system: rabbit erythrocytes (alternative pathway haemolysis); assay: Inhibition of alternative pathway haemolysis; type: cell-based, rabbit erythrocytes; normal human serum; settings: 4.5% serum
# Protocol: GVB^++ or Mg EGTA buffers, which had been supplemented with 2.5% glucose (w/v), were used for the CP and AP assays, respectively. For the AP, 150 µL of rabbit erythrocytes (TCS Biosciences, Botolph Claydon, UK) were washed twice, by addition of 1 mL of buffer and centrifugation at 800 ×g for 1 min, and finally resuspended in 500 µL of buffer. For the CP, 150 µL sheep erythrocytes (TCS Biosciences, Botolph Claydon, UK) were washed twice with 1 mL of buffer and sensitised with a 1/1000 dilution of rabbit anti-sheep red blood cell stroma antibody (S1389, Sigma Aldrich, Gillingham, UK). After a 30°C/30 min incubation, with shaking, the cells were rewashed and resuspended with 500 µL of buffer. Serial dilutions of peptide were prepared in the respective buffers and normal human serum was added at 1% for the CP and 4.5% for the AP (corresponding to CH50 of the serum). Also, 90 µL of peptide–serum mixtures were plated into a V-bottom 96-well microtiter plate (Corning) and 10 µL of erythrocytes were added. Plates were incubated for 30 min at 37°C, with shaking. Finally, 50 µL of buffer was added, the plates centrifuged at 800 ×g, and 80 µL of supernatant was transferred to an ELISA plate (Nunc) and absorbance measured at 405 nm.
# Table 1.8. Inhibition of alternative pathway haemolysis.
# C3b deposition = C3b deposition ELISA (CP and AP); type: biochemical; settings: CP (1% serum) and AP (5% serum) ELISA, anti-human C3d
# Protocol: For the C3 and C9 ELISAs, microtiter plates (MaxiSorp; Nunc) were incubated overnight at 4°C with 50 µL of a solution of in 75 mM sodium carbonate (pH 9.6) containing either 2.5 µg/mL aggregated human IgG (Sigma-Aldrich, Gillingham, UK) for CP or 20 µg/mL zymosan (Sigma-Aldrich, Gillingham, UK) for AP. As a negative control, wells were coated with 1% (w/v) bovine serum albumin (BSA)/PBS. Microtiter plates were washed four times with 250 µL of wash buffer (50 mM Tris-HCl), 150 mM NaCl and 0.1% Tween 20 (pH 8) between each step of the procedure. Wells were blocked using 250 µL of 1% (w/v) BSA/PBS for 2 hr at room temperature. […] Complement activation was assessed through detection of deposited complement activation factors using specific antibodies against C3b (rat anti-human C3d HM2198, Hycult, Uden, The Netherlands) and C9 (goat anti-human C9, A226, Complement Technologies Tyler, TX) at a 1:1000 dilution. Bound primary antibodies were detected with […]-conjugated goat anti-rat (ab97057, Abcam, Cambridge, UK) or rabbit anti-goat (P0449, Agilent Dako, Santa Clara, CA) secondary antibodies at a 1:1000 dilution. Bound HRP-conjugated antibodies were detected using TMB One solution (Eco-TEK – manufactured by Bio-TEK, Winooski, VT) with absorbance measured at 450 nm.
sequence,measurement,setting,value
"SVCPDGFDWGYGCAAGSSRFCTRHDWCCYDERADSHTYGFCTGNRVENLYFQ (disulfide 3-28, 13-21, 27-41) [K8]",Average Emax,"[1]; CP C5b ELISA, preincubated 15 min RT",68.2%
same,IC50,"[1]; CP functional ELISA kit (Svar), peptide preincubated with human serum 15 min RT, CP 1% serum, putative 4 nM C5, read-out: Geomean IC50",9.3 nM
same,Average Emax,"[2]; AP C5b ELISA, preincubated 15 min RT",91.8%
same,IC50,"[2]; AP functional ELISA kit (Svar), peptide preincubated with human serum 15 min RT, AP 5% serum, putative 20 nM C5, read-out: Geomean IC50",29.2 nM
same,Average Emax,[3],71.8%
same,inhibition of AP haemolysis (in words),[4],"did not show efficacy in the AP haemolysis assay, below 10 µM; also recorded: did not show activity in the AP assay below 10 µM"
same,effect on C3b deposition,C3b deposition,no effect on C3b deposition was detected
